Literature values in publication PMC10049421, “Anticancer Activity of Sunitinib Analogues in Human Pancreatic Cancer Cell Cultures under Normoxia and Hypoxia” (International Journal of Molecular Sciences, 2023).

Tests used:
[1] = system: PANC-1 cells; details: PANC-1, 5 μM; cited from earlier work
[2] = system: MIA PaCa-2 cell line; design: method as in PMID 30341797; details: MIA PaCa-2, 5 μM; cited from earlier work
[3] = system: PANC-1 cell monolayer; details: PANC-1, 1 μM, 24 h and 48 h; cited from earlier work
[4] = system: MIA PaCa-2 cell line; design: method as in PMID 26176887; details: MIA PaCa-2, 1 μM, 24 h and 48 h; cited from earlier work

Nc1ccn([C@@H]2O[C@H](CO)[C@@H](O)C2(F)F)c(=O)n1 [gemcitabine]
colony formation [1]: statistically significantly reduced
colony formation [2]: statistically significantly reduced
'wounds' compared to the control [3]: did not show a significant difference
'wounds' compared to the control [4]: did not show a significant difference
